Assay results from ChEMBL document CHEMBL2163248, “Classification of inhibitors of hepatic organic anion transporting polypeptides (OATPs): influence of protein expression on drug-drug interactions” (J Med Chem, 2012).
*1 amine or outer side, *2 acyl side, *3 side chain or, on linkers, in order; H or OH if unused. Where a SMILES comes first, the peptide text is derived from it. Bridges are numbered along the chain shown (N, C = ends). [ ]: non-standard residue; d: D form. Trp(2-yl) = O=C([C@H](Cc1c([*:3])[nH]c2ccccc12)N[*:1])[*:2]; Leu(4R-OH,5-OH) = C[C@](O)(CO)C[C@H](N)C(=O)O; cisHyp = O=C(O)[C@@H]1C[C@H](O)CN1

Assays:
[1] = biological target: T1, Solute carrier organic anion transporter family member 1B3 (Homo sapiens, UniProt Q9NPD5); assay: Inhibition of human liver OATP1B3 expressed in HEK293 Flp-In cells assessed as reduction in [3H]E17-betaG uptake at 20 uM incubated for 5 mins by scintillation counting; conditions: hek293, 5 min
T1 sequence (Q9NPD5 whole entry): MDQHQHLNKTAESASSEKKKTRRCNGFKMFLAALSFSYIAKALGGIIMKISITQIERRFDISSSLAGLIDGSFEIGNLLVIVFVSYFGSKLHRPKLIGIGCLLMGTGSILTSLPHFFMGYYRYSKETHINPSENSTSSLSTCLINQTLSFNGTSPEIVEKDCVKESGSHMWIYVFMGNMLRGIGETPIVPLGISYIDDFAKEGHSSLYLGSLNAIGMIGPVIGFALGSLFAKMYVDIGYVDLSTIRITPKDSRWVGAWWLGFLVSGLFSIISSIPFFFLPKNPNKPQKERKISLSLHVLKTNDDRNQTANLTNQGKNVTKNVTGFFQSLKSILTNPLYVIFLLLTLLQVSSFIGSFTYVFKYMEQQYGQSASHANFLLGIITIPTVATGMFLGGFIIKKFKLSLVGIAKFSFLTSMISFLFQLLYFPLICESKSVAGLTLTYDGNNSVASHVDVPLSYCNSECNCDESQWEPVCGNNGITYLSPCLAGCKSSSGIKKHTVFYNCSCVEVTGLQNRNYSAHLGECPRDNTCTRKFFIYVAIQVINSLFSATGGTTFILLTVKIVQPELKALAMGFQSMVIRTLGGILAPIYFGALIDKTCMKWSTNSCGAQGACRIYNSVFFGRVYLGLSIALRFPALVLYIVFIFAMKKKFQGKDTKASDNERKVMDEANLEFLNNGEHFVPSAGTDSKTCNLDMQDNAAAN

[2] = biological target: T2, Solute carrier organic anion transporter family member 2B1 (Homo sapiens, UniProt O94956); assay: Inhibition of human liver OATP2B1 expressed in HEK293 Flp-In cells assessed as reduction in [3H]E3S uptake at 20 uM incubated for 5 mins by scintillation counting; conditions: hek293, 5 min
T2 sequence (O94956 whole entry): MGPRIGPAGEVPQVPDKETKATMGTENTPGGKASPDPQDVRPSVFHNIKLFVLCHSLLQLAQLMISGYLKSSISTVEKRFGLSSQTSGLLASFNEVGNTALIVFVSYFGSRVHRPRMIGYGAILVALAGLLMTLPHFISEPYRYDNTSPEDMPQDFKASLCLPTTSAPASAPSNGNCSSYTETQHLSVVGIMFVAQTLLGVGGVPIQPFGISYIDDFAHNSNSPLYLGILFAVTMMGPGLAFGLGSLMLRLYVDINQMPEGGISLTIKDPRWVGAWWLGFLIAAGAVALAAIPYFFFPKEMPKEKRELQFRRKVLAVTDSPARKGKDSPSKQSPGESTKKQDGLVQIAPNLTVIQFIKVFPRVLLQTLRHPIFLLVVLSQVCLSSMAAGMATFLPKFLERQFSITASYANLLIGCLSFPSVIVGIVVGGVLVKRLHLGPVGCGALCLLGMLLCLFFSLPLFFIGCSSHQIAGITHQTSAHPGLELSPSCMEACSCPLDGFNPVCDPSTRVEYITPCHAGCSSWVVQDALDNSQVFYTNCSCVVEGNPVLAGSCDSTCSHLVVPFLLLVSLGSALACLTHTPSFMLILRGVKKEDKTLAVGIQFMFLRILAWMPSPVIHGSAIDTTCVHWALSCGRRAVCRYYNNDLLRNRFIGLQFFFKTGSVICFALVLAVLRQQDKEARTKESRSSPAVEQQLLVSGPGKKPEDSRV

[3] = biological target: T3, Solute carrier organic anion transporter family member 1B1 (Homo sapiens, UniProt Q9Y6L6); assay: Inhibition of human liver OATP1B1 expressed in HEK293 Flp-In cells assessed as reduction in E17-betaG uptake at 20 uM by scintillation counting; conditions: hek293, 20 µM
T3 sequence (Q9Y6L6 whole entry): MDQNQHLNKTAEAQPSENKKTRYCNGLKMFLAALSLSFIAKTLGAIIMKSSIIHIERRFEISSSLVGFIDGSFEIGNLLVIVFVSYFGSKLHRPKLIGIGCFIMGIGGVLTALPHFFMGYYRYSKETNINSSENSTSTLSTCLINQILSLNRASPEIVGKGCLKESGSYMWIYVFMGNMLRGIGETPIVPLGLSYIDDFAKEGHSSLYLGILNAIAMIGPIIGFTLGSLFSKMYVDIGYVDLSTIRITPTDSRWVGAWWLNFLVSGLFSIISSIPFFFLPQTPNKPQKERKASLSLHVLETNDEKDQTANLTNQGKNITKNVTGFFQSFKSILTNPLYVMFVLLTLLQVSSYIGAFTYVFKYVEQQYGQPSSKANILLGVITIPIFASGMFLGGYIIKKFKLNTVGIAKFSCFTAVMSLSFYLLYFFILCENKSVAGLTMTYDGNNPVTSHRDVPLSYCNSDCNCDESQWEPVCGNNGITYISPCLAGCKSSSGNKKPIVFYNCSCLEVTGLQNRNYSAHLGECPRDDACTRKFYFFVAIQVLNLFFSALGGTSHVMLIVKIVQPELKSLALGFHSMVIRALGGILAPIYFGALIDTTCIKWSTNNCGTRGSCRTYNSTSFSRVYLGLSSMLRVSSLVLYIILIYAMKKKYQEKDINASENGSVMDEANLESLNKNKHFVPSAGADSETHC

Structure (SMILES) | INH [1] [%] | INH [2] [%] | INH [3] [%]
Cc1ncc2n1-c1ccc(Cl)cc1C(c1ccccc1F)=NC2 [MIDAZOLAM] | 6.7 | 22.7 | 32.9
CC#C[C@]1(O)CC[C@H]2[C@@H]3CCC4=CC(=O)CCC4=C3[C@@H](c3ccc(N(C)C)cc3)C[C@@]21C [MIFEPRISTONE] | 80.3 | 70.7 | 81.2
O=C1c2c(O)ccc(O)c2C(=O)c2c(NCCNCCO)ccc(NCCNCCO)c21 [MITOXANTRONE] | 67.9 | 48.3 | 27.2
CN(C)C(=O)CCSC(SCCC(=O)O)c1cccc(/C=C/c2ccc3ccc(Cl)cc3n2)c1 (stereo not given) [MK-571] | 80.7 | 75.2 | 88.5
O=C(NCCN1CCOCC1)c1ccc(Cl)cc1 [MOCLOBEMIDE] | -3.3 | 27.5 | 1.7
O=c1c(O)c(-c2ccc(O)cc2O)oc2cc(O)cc(O)c12 [MORIN] | 78.5 | 71.3 | 85.2
O=C1C[C@@H](c2ccc(O)cc2)Oc2cc(O)cc(O)c21 [NARINGENIN] | -57.2 | 32.4 | 34.8
C[C@@H]1O[C@@H](O[C@H]2[C@H](Oc3cc(O)c4c(c3)O[C@H](c3ccc(O)cc3)CC4=O)O[C@H](CO)[C@@H](O)[C@@H]2O)[C@H](O)[C@H](O)[C@H]1O [NARINGIN] | 37.7 | 47.1 | 34
CCc1nn(CCCN2CCN(c3cccc(Cl)c3)CC2)c(=O)n1CCOc1ccccc1 [NEFAZODONE] | 61.4 | 61.5 | 12
COC(=O)C1=C(C)NC(C)=C(C(=O)OCCN(C)Cc2ccccc2)C1c1cccc([N+](=O)[O-])c1 (stereo not given) [NICARDIPINE] | 10.1 | 31.8 | 65.1
CN1CCC[C@H]1c1cccnc1 [NICOTINE] | 11 | -16.5 | 6.9
CNC(=O)c1cccnc1 [NICOTINYL METHYLAMIDE] | -0.5 | 14.5 | 71.4
C=C(C)[C@@H]1CCC2=CC(=O)C[C@@H](C)[C@]2(C)C1 [NOOTKATONE] | -3.2 | -72.2 | 25.6
CO[C@@H]1[C@@H](OC(N)=O)[C@@H](O)[C@H](Oc2ccc3c(O)c(NC(=O)c4ccc(O)c(CC=C(C)C)c4)c(=O)oc3c2C)OC1(C)C [NOVOBIOCIN] | 84.2 | 85.6 | 58.1
COc1ccc2[nH]c([S+]([O-])Cc3ncc(C)c(OC)c3C)nc2c1 (stereo not given) [OMEPRAZOLE] | 29.5 | 11.3 | 15.9
C[C@@H]1O[C@@H](O[C@H]2C[C@@H](O)[C@]3(CO)[C@H]4[C@H](O)C[C@]5(C)[C@@H](C6=CC(=O)OC6)CC[C@]5(O)[C@@H]4CC[C@]3(O)C2)[C@H](O)[C@H](O)[C@H]1O [OUABAIN] | 20.5 | -24.1 | 50.5
COc1ccnc(C[S+]([O-])c2nc3ccc(OC(F)F)cc3[nH]2)c1OC (stereo not given) [PANTOPRAZOLE] | 23.4 | 17.3 | 15.2
Fc1ccc([C@@H]2CCNC[C@H]2COc2ccc3c(c2)OCO3)cc1 [PAROXETINE] | 12.7 | 37.5 | 33

Structure (SMILES) | INH [1] [%] | INH [2] [%] | INH [3] [%]
CC1(C)S[C@@H]2[C@H](NC(=O)Cc3ccccc3)C(=O)N2[C@H]1C(=O)O [PENICILLIN G] | 40.9 | 7.6 | 8.8
C[C@@H]1NC(=O)[C@H](C[C@@](C)(O)CO)NC(=O)[C@@H]2Cc3c([nH]c4ccccc34)SC[C@H](NC(=O)[C@@H]([C@H](C)O)NC1=O)C(=O)N1C[C@@H](O)C[C@H]1C(=O)N[C@@H](C)C(=O)N2 [PHALLOIDIN] (cyclo(A[dT]C[cisHyp]A[Trp(2-yl)][Leu(4R-OH,5-OH)]); thioether 3-6) | 36.2 | 24.1 | 26.1
CCOc1ccc(NC(C)=O)cc1 [PHENACETIN] | -0.9 | -0.1 | 34.2
[H]/N=C(/N)N/C(=N/[H])NCCc1ccccc1 [PHENFORMIN] | -2.3 | 16.7 | 34.5
CCC1(c2ccccc2)C(=O)NC(=O)NC1=O [PHENOBARBITAL] | 7.3 | 11 | -3.9
Cc1cccc(C)c1NC(=O)CC12CCCN1CCC2 [PILSICAINIDE] | -16.8 | 10.8 | 11.2
CC(C)NCC(O)COc1cccc2[nH]ccc12 (stereo not given) [PINDOLOL] | 24.5 | -10.8 | -24.7
CCc1ccc(CCOc2ccc(CC3SC(=O)NC3=O)cc2)nc1 (stereo not given) [PIOGLITAZONE] | 5.6 | -9.9 | 21.9
CN1C(C(=O)Nc2ccccn2)=C(O)c2ccccc2S1(=O)=O [PIROXICAM] | 23.5 | 68.3 | 16.2
O=C(O)C[C@H](O)C[C@H](O)/C=C/c1c(C2CC2)nc2ccccc2c1-c1ccc(F)cc1 [PITAVASTATIN] | 94.3 | 63.7 | 97.4
COc1cc2nc(N3CCN(C(=O)c4ccco4)CC3)nc(N)c2cc1OC [PRAZOSIN] | 36.1 | 1 | 25.1
C[C@]12C=CC(=O)C=C1CC[C@@H]1[C@@H]2[C@@H](O)C[C@@]2(C)[C@H]1CC[C@]2(O)C(=O)CO [PREDNISOLONE] | 9.6 | 27.6 | 2.3
CCN(CC)CCNC(=O)c1ccc(N)cc1 [PROCAINAMIDE] | 3.4 | 17.8 | 21.6
CC(=O)[C@H]1CC[C@H]2[C@@H]3CCC4=CC(=O)CC[C@]4(C)[C@H]3CC[C@]12C [PROGESTERONE] | 33.4 | -362.6 | 63.9
CC(C)NCC(O)COc1cccc2ccccc12 (stereo not given) [PROPRANOLOL] | 12.8 | 10.1 | 8.9
O=c1c(O)c(-c2ccc(O)c(O)c2)oc2cc(O)cc(O)c12 [QUERCETIN] | 21.6 | 72.6 | 77
COc1ccccc1OCC(O)CN1CCN(CC(=O)Nc2c(C)cccc2C)CC1 (stereo not given) [RANOLAZINE] | -14.9 | 41.6 | 4.3
